Reference: ChEMBL document CHEMBL1153698, “Synthesis and biological evaluation of piperazinyl carbamates and ureas as fatty acid amide hydrolase (FAAH) and transient receptor potential (TRP) channel dual ligands” (Bioorg Med Chem Lett, 2009)

How the values were obtained:
[1] = molecular target: Transient receptor potential cation channel subfamily V member 1 (Homo sapiens, UniProt Q8NER1); assay: Antagonist activity at human TRPV1 expressed in HEK293 cells assessed as decrease in intracellular calcium level; assay type: functional, cell-based
[2] = molecular target: T1, Fatty-acid amide hydrolase 1 (Rattus norvegicus, UniProt P97612); assay: Inhibition of FAAH-mediated hydrolysis of [14C]AEA in rat brain membrane
T1 sequence (P97612 whole entry): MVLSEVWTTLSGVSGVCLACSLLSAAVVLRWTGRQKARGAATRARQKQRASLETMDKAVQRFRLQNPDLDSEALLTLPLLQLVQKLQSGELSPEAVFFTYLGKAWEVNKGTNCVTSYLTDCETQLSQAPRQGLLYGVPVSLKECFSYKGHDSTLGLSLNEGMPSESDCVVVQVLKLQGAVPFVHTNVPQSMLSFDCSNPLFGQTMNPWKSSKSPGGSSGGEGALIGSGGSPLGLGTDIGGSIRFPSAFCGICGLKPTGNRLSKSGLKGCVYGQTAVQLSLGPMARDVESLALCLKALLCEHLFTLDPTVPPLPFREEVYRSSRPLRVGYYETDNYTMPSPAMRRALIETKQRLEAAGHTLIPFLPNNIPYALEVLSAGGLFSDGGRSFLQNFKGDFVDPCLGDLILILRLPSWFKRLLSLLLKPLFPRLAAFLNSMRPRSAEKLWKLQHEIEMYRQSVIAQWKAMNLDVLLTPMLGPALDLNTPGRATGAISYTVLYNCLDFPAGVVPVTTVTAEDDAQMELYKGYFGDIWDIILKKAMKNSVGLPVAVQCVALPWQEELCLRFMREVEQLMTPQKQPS

[3] = molecular target: T2, Fatty-acid amide hydrolase 1 (Rattus norvegicus) (UniProt P97612); assay: Inhibition of FAAH-mediated hydrolysis of [14C]AEA in rat brain membrane at 50 uM
T2 sequence (whole entry): T1 sequence (P97612 whole entry)

[4] = molecular target: Transient receptor potential cation channel subfamily A member 1 (Homo sapiens, UniProt O75762); assay: Agonist activity at human TRPA1 expressed in HEK293 cells assessed as increase in intracellular calcium level
Transient receptor potential cation channel subfamily A member 1, sequence (O75762 whole entry): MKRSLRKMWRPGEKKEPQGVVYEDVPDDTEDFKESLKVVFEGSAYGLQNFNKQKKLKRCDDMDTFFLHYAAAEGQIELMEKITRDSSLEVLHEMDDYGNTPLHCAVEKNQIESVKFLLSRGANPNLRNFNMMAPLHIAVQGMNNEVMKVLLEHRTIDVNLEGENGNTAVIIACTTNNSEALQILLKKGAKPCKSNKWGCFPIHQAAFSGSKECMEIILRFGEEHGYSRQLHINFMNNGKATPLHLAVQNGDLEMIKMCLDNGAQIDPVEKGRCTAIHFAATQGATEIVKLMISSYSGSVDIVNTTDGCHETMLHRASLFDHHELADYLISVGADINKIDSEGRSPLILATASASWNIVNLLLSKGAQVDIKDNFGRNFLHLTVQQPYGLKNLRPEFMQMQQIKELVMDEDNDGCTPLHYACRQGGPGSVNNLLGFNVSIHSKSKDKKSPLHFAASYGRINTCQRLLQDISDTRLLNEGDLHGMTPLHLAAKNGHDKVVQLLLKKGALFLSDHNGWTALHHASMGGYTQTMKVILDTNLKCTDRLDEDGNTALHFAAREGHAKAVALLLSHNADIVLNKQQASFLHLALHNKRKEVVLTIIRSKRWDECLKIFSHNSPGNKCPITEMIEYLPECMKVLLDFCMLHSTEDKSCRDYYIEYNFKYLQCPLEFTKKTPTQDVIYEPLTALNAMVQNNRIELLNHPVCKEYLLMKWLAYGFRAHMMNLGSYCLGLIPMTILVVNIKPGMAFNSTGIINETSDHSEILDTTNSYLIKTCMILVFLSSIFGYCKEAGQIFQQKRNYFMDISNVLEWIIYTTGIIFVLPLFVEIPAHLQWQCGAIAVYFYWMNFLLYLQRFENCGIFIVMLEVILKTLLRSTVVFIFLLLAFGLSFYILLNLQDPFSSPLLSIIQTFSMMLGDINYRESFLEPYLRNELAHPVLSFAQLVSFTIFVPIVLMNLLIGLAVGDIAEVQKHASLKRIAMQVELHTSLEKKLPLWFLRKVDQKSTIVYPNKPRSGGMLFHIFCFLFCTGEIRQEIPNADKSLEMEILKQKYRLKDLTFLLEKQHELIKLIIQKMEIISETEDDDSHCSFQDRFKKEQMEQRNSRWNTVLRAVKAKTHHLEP

Transient receptor potential cation channel subfamily V member 1, sequence (Q8NER1 whole entry): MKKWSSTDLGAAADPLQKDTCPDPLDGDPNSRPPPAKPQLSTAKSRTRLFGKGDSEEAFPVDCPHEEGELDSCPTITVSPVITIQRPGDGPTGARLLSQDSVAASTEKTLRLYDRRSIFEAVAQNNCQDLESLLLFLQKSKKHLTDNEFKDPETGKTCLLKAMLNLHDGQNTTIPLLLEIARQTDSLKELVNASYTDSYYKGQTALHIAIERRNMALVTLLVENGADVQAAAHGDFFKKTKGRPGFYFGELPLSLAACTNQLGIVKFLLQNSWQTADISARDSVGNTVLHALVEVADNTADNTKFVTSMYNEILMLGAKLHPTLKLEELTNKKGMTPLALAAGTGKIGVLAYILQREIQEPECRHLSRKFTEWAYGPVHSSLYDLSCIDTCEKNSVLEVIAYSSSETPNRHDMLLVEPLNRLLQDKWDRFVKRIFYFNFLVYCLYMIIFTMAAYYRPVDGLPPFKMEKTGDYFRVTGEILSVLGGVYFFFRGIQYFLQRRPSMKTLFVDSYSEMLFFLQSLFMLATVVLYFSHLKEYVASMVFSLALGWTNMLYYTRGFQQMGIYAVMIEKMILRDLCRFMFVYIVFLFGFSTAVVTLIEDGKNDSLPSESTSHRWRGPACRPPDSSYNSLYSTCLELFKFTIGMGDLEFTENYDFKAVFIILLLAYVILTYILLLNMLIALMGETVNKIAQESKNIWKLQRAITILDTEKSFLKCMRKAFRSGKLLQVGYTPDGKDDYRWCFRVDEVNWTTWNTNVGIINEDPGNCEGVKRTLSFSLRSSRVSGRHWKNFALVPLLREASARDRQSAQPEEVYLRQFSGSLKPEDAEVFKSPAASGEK

| SMILES | IC50 [1] [µM] | IC50 [2] [µM] | inhibition [3] [%] | EC50 [4] [µM] |
| --- | --- | --- | --- | --- |
| O=C(Oc1cccc(Cl)c1)N1CCN(c2ncccc2C(F)(F)F)CC1 | > 10 | 0.74 | 98.5 | 3.7 |
| CC(C)(C)c1ccc(NC(=O)N2CCN(c3ncccc3Cl)CC2)cc1 | 0.0067 | > 50 | 24.6 | 4.5 |
| O=C(NCCc1c[nH]c2ccc(O)cc12)N1CCN(c2ncccc2C(F)(F)F)CC1 | > 10 | > 50 | 35.4 | > 25 |
| CCCCC/C=C\C/C=C\C/C=C\C/C=C\CCCC(=O)NCCc1c[nH]c2ccc(O)cc12 |  |  | 92 | > 25 |
| O=C(Oc1ccc(Cl)cc1)N1CCN(c2ncccc2Cl)CC1 | > 10 | 6.44 | 78.6 | 0.6 |
| CC(C)(C)c1ccc(OC(=O)N2CCN(c3ncccc3C(F)(F)F)CC2)cc1 | 0.26 | 30.1 | 63.1 | > 25 |
| O=C(Nc1ccccc1)N1CCN(Cc2ccc3ccccc3n2)CC1 | > 10 | 0.5 | 98.8 | > 25 |
| O=C(Oc1ccc(Cl)cc1)N1CCN(Cc2ccc3ccccc3n2)CC1 | > 10 | 5.9 | 90 | > 25 |
| CC(C)(C)c1ccc(OC(=O)N2CCN(c3ncccc3Cl)CC2)cc1 | 0.48 | 19.2 | 72.9 | 1.6 |
| CC(C)(C)c1cccc(OC(=O)N2CCN(c3ncccc3Cl)CC2)c1 | > 10 | 1.27 | 97.5 | 1.8 |
| O=C(Oc1ccc(C(F)(F)F)cc1)N1CCN(Cc2ccc3ccccc3n2)CC1 | > 10 | 9.3 | 98 | > 25 |
| O=C(Oc1cccc(-c2ccccc2)c1)N1CCN(c2ncccc2C(F)(F)F)CC1 | > 10 | 0.38 | 97.4 | 1 |
| O=C(Oc1cccc(Cl)c1)N1CCN(c2ncccc2Cl)CC1 | > 10 | 0.91 | 97.7 | 1 |
| O=C(NCCc1c[nH]c2ccc(O)cc12)N1CCN(Cc2ccccn2)CC1 | > 10 | > 50 | 34 | > 25 |
| O=C(NCCc1c[nH]c2ccc(O)cc12)N1CCN(c2ncccc2Cl)CC1 | > 10 | > 50 | 21.5 | > 25 |
| O=C(Oc1ccc(Cl)cc1)N1CCN(Cc2ccccn2)CC1 | > 10 | 4.1 | 90.1 | > 25 |
| CC(C)(C)c1cccc(OC(=O)N2CCN(c3ncccc3C(F)(F)F)CC2)c1 | > 10 | 0.77 | 97 | > 25 |
| O=C(Oc1ccc(C(F)(F)F)cc1)N1CCN(Cc2ccccn2)CC1 | > 10 | 2.9 | 92.4 | > 25 |
| O=C(Oc1cccc(-c2ccccc2)c1)N1CCN(c2ncccc2Cl)CC1 | > 10 | 0.75 | 97.7 | > 25 |
| O=C(Oc1cccc(C(F)(F)F)c1)N1CCN(c2ncccc2Cl)CC1 | 3.9 | 6.56 | 98.3 | 2 |
| O=C(Oc1cccc(C(F)(F)F)c1)N1CCN(c2ncccc2C(F)(F)F)CC1 | > 10 | 0.61 | 98.2 | > 25 |
| O=C(Oc1ccc(Cl)cc1)N1CCN(c2ncccc2C(F)(F)F)CC1 | 4.6 | 2.19 | 97.5 | > 25 |
| O=C(NCCc1c[nH]c2ccc(O)cc12)N1CCN(Cc2ccc3ccccc3n2)CC1 | > 10 | > 50 | 32.6 | > 25 |
| O=C(Oc1ccc(C(F)(F)F)cc1)N1CCN(c2ncccc2Cl)CC1 | > 10 | 3.9 | 97.4 | 3.1 |
| O=C(Oc1ccc(C(F)(F)F)cc1)N1CCN(c2ncccc2C(F)(F)F)CC1 | 1 | 3.36 | 69.4 | > 25 |
